Laboratory results: ChEMBL document CHEMBL4619712, “Double-component diazeniumdiolate derivatives as anti-cancer agents” (Bioorg Med Chem, 2020)
pIC50: −log10 of the molar value.

Assays:
Type in all cases: functional, cell-based
A549 = experiment: Anticancer activity against human A549 cells assessed as inhibition of cell growth after 72 hrs by MTT or MTS assay; conditions: A549, 72 h
MDA-MB-231 = experiment: Anticancer activity against human MDA-MB-231 cells assessed as inhibition of cell growth after 72 hrs by MTT or MTS assay; conditions: MDA-MB-231, 72 h
BT-474 = experiment: Anticancer activity against human BT474 cells assessed as inhibition of cell growth after 72 hrs by MTT or MTS assay; conditions: BT-474, 72 h
Jurkat E6.1 = experiment: Anticancer activity against human Jurkat E6-1 cells assessed as inhibition of cell growth after 72 hrs by MTT or MTS assay; conditions: Jurkat E6.1, 72 h
CCRF-CEM = experiment: Anticancer activity against human CCRF-CEM cells assessed as inhibition of cell growth after 72 hrs by MTT or MTS assay

With `CCOC(=O)N1CCN(/[N+]([O-])=N/Oc2ccc([N+](=O)[O-])cc2[N+](=O)[O-])CC1` the pIC50 (A549) was 5.68, the pIC50 (MDA-MB-231) was 5.10 and the pIC50 (BT-474) was 5.44. The pIC50 (Jurkat E6.1) was 6.04 and the pIC50 (CCRF-CEM) was 6.05.
